Results published in ChEMBL document CHEMBL1153480, “Study on the potential anti-cancer activity of phosphonium and ammonium-based ionic liquids” (2009).

How the values were obtained:
Assay type in all cases: functional
NCI-H322M = test: cells; conditions: Homo sapiens
Description: Growth inhibition of human NCI-H322M cells assessed as cell growth at 10 uM by SRB assay

HT-29 [1] = test: cells; conditions: Homo sapiens
Description: Growth inhibition of human HT-29 cells assessed as cell growth at 10 uM by SRB assay

M14 [2] = test: cells; conditions: Homo sapiens
Description: Growth inhibition of human M14 cells assessed as drug level required for 50% reduction in net protein increase by SRB assay relative to control

SK-OV-3 [3] = test: cells; conditions: Homo sapiens
Description: Growth inhibition of human SKOV3 cells assessed as drug level required for 50% reduction in net protein increase by SRB assay relative to control

SK-MEL-2 = test: cells; conditions: Homo sapiens
Description: Growth inhibition of human SK-MEL-2 cells assessed as drug level required for 50% reduction in net protein increase by SRB assay relative to control

HL-60(TB) = test: cells; conditions: Homo sapiens
Description: Growth inhibition of human HL-60(TB) cells assessed as drug level required for 50% reduction in net protein increase by SRB assay relative to control

SF-268 = test: cells; conditions: Homo sapiens
Description: Growth inhibition of human SF268 cells assessed as cell growth at 10 uM by SRB assay

SF-295 [4] = test: Cytotoxicity against human SF295 cells by SRB assay; conditions: read-out: LC50 (the source's name)
U-251 [5] = test: cells; conditions: Homo sapiens
Description: Growth inhibition of human U251 cells assessed as cell growth at 10 uM by SRB assay

OVCAR-4 [6] = test: Cytotoxicity against human OVCAR4 cells by SRB assay; conditions: read-out: LC50 (the source's name)
HOP-92 = test: cells; conditions: Homo sapiens
Description: Growth inhibition of human HOP92 cells assessed as drug level required for 50% reduction in net protein increase by SRB assay relative to control

SNB-75 [7] = test: cells; conditions: Homo sapiens
Description: Growth inhibition of human SNB75 cells assessed as cell growth at 10 uM by SRB assay

SW-620 = test: cells; conditions: Homo sapiens
Description: Growth inhibition of human SW620 cells assessed as cell growth at 10 uM by SRB assay

BT-549 [8] = test: cells; conditions: Homo sapiens
Description: Growth inhibition of human BT549 cells assessed as drug level required for 50% reduction in net protein increase by SRB assay relative to control

PC-3 = test: cells; conditions: Homo sapiens
Description: Growth inhibition of human PC3 cells assessed as cell growth at 10 uM by SRB assay

SF-295 [9] = test: cells; conditions: Homo sapiens
Description: Growth inhibition of human SF295 cells assessed as cell growth at 10 uM by SRB assay

SR = test: Cytotoxicity against human SR cells by SRB assay; conditions: read-out: LC50 (the source's name)
cells [10] = conditions: Homo sapiens, Hs-578T
Description: Growth inhibition of human Hs 578T cells assessed as cell growth at 10 uM by SRB assay

NCI-H522 [11] = test: cells; conditions: Homo sapiens
Description: Growth inhibition of human NCI-H522 cells assessed as cell growth at 10 uM by SRB assay

HOP-62 = test: cells; conditions: Homo sapiens
Description: Growth inhibition of human HOP62 cells assessed as cell growth at 10 uM by SRB assay

OVCAR-8 = test: cells; conditions: Homo sapiens
Description: Growth inhibition of human OVCAR8 cells assessed as cell growth at 10 uM by SRB assay

IGROV-1 = test: cells; conditions: Homo sapiens
Description: Growth inhibition of human IGROV1 cells assessed as drug level required for 50% reduction in net protein increase by SRB assay relative to control

M14 [12] = test: cells; conditions: Homo sapiens; remark: listed apart in the source
Description: Growth inhibition of human M14 cells assessed as cell growth at 10 uM by SRB assay

NCI-H23 [13] = test: cells; conditions: Homo sapiens
Description: Growth inhibition of human NCI-H23 cells assessed as drug level required for 50% reduction in net protein increase by SRB assay relative to control

NCI-H522 [14] = test: Cytotoxicity against human NCI-H522 cells by SRB assay; conditions: read-out: LC50 (the source's name)
A498 = test: cells; conditions: Homo sapiens
Description: Growth inhibition of human A498 cells assessed as cell growth at 10 uM by SRB assay

KM12 = test: cells; conditions: Homo sapiens
Description: Growth inhibition of human KM12 cells assessed as drug level required for 50% reduction in net protein increase by SRB assay relative to control

COLO 205 = test: Cytotoxicity against human COLO205 cells by SRB assay; conditions: read-out: LC50 (the source's name)
ACHN = test: cells; conditions: Homo sapiens
Description: Growth inhibition of human ACHN cells assessed as drug level required for 50% reduction in net protein increase by SRB assay relative to control

T47D = test: cells; conditions: Homo sapiens
Description: Growth inhibition of human T47D cells assessed as cell growth at 10 uM by SRB assay

UACC-257 = test: cells; conditions: Homo sapiens
Description: Growth inhibition of human UACC257 cells assessed as cell growth at 10 uM by SRB assay

SNB-75 [15] = test: Cytotoxicity against human SNB75 cells by SRB assay; conditions: read-out: LC50 (the source's name)
BT-549 [16] = test: Cytotoxicity against human BT549 cells by SRB assay; conditions: read-out: LC50 (the source's name)
HCC 2998 = test: cells; conditions: Homo sapiens
Description: Growth inhibition of human HCC2998 cells assessed as drug level required for 50% reduction in net protein increase by SRB assay relative to control

NCI-H23 [17] = test: cells; conditions: Homo sapiens; remark: listed apart in the source
Description: Growth inhibition of human NCI-H23 cells assessed as cell growth at 10 uM by SRB assay

SF-539 = test: cells; conditions: Homo sapiens
Description: Growth inhibition of human SF539 cells assessed as drug level required for 50% reduction in net protein increase by SRB assay relative to control

cells [18] = conditions: Homo sapiens, Hs-578T; read-out: LC50 (the source's name)
Description: Cytotoxicity against human Hs 578T cells by SRB assay

MDA-MB-231 = test: cells; conditions: Homo sapiens
Description: Growth inhibition of human MDA-MB-231 cells assessed as cell growth at 10 uM by SRB assay

SK-OV-3 [19] = test: cells; conditions: Homo sapiens; remark: listed apart in the source
Description: Growth inhibition of human SKOV3 cells assessed as cell growth at 10 uM by SRB assay

SNB-19 [20] = test: Cytotoxicity against human SNB19 cells by SRB assay; conditions: read-out: LC50 (the source's name)
NCI/ADR-RES [21] = test: cells; conditions: Homo sapiens
Description: Growth inhibition of human NCI/ADR-RES cells assessed as drug level required for 50% reduction in net protein increase by SRB assay relative to control

786-0 [22] = test: cells; conditions: Homo sapiens
Description: Growth inhibition of human 786-0 cells assessed as cell growth at 10 uM by SRB assay

U-251 [23] = test: cells; conditions: Homo sapiens; remark: listed apart in the source
Description: Growth inhibition of human U251 cells assessed as drug level required for 50% reduction in net protein increase by SRB assay relative to control

SNB-19 [24] = test: cells; conditions: Homo sapiens
Description: Growth inhibition of human SNB19 cells assessed as drug level required for 50% reduction in net protein increase by SRB assay relative to control

MDA-MB-435 [25] = test: cells; conditions: Homo sapiens
Description: Growth inhibition of human MDA-MB-435 cells assessed as drug level required for 50% reduction in net protein increase by SRB assay relative to control

786-0 [26] = test: cells; conditions: Homo sapiens; remark: listed apart in the source
Description: Growth inhibition of human 786-0 cells assessed as drug level required for 50% reduction in net protein increase by SRB assay relative to control

NCI-H226 = test: cells; conditions: Homo sapiens
Description: Growth inhibition of human NCI-H226 cells assessed as cell growth at 10 uM by SRB assay

MOLT-4 [27] = test: cells; conditions: Homo sapiens
Description: Growth inhibition of human MOLT4 cells assessed as drug level required for 50% reduction in net protein increase by SRB assay relative to control

K562 = test: cells; conditions: Homo sapiens
Description: Growth inhibition of human K562 cells assessed as drug level required for 50% reduction in net protein increase by SRB assay relative to control

UACC-62 = test: cells; conditions: Homo sapiens
Description: Growth inhibition of human UACC62 cells assessed as drug level required for 50% reduction in net protein increase by SRB assay relative to control

MCF7 = test: cells; conditions: Homo sapiens
Description: Growth inhibition of human MCF7 cells assessed as cell growth at 10 uM by SRB assay

RPMI-8226 = test: cells; conditions: Homo sapiens
Description: Growth inhibition of human RPMI8226 cells assessed as cell growth at 10 uM by SRB assay

SN12C = test: cells; conditions: Homo sapiens
Description: Growth inhibition of human SN12C cells assessed as drug level required for 50% reduction in net protein increase by SRB assay relative to control

MDA-MB-435 [28] = test: Cytotoxicity against human MDA-MB-435 cells by SRB assay; conditions: read-out: LC50 (the source's name)
HCT-116 = test: cells; conditions: Homo sapiens
Description: Growth inhibition of human HCT116 cells assessed as drug level required for 50% reduction in net protein increase by SRB assay relative to control

MOLT-4 [29] = test: cells; conditions: Homo sapiens; remark: listed apart in the source
Description: Growth inhibition of human MOLT4 cells assessed as cell growth at 10 uM by SRB assay

MDA-MB-435 [30] = test: cells; conditions: Homo sapiens; remark: listed apart in the source
Description: Growth inhibition of human MDA-MB-435 cells assessed as cell growth at 10 uM by SRB assay

SK-MEL-28 = test: cells; conditions: Homo sapiens
Description: Growth inhibition of human SK-MEL-28 cells assessed as cell growth at 10 uM by SRB assay

OVCAR-4 [31] = test: cells; conditions: Homo sapiens
Description: Growth inhibition of human OVCAR4 cells assessed as cell growth at 10 uM by SRB assay

SK-MEL-5 = test: cells; conditions: Homo sapiens
Description: Growth inhibition of human SK-MEL-5 cells assessed as drug level required for 50% reduction in net protein increase by SRB assay relative to control

UO-31 = test: Cytotoxicity against human UO31 cells by SRB assay; conditions: read-out: LC50 (the source's name)
CCRF-CEM = test: cells; conditions: Homo sapiens
Description: Growth inhibition of human CCRF-CEM cells assessed as cell growth at 10 uM by SRB assay

LOX IMVI = test: cells; conditions: Homo sapiens
Description: Growth inhibition of human LOXIMVI cells assessed as cell growth at 10 uM by SRB assay

HCT-15 = test: cells; conditions: Homo sapiens
Description: Growth inhibition of human HCT15 cells assessed as drug level required for 50% reduction in net protein increase by SRB assay relative to control

RXF 393 = test: cells; conditions: Homo sapiens
Description: Growth inhibition of human RFX393 cells assessed as drug level required for 50% reduction in net protein increase by SRB assay relative to control

MDA-MB-468 = test: Cytotoxicity against human MDA-MB-468 cells by SRB assay; conditions: read-out: LC50 (the source's name)
HT-29 [32] = test: Cytotoxicity against human HT-29 cells by SRB assay; conditions: read-out: LC50 (the source's name)
MOLT-4 [33] = test: Cytotoxicity against human MOLT4 cells by SRB assay; conditions: read-out: LC50 (the source's name)
TK-10 = test: cells; conditions: Homo sapiens
Description: Growth inhibition of human TK10 cells assessed as drug level required for 50% reduction in net protein increase by SRB assay relative to control

NCI/ADR-RES [34] = test: cells; conditions: Homo sapiens; remark: listed apart in the source
Description: Growth inhibition of human NCI/ADR-RES cells assessed as cell growth at 10 uM by SRB assay

cells [35] = conditions: Homo sapiens, CAKI
Description: Growth inhibition of human CAKI cells assessed as cell growth at 10 uM by SRB assay

Molecule `CCCCCCCCCCCCCCCCCCPCCCCCCCCCCCCCC.O=S(=O)(NS(=O)(=O)C(F)(F)F)C(F)(F)F` (configuration not stated) has a growth at 10 µM (NCI-H322M) of -11.9%, a growth at 10 µM (HT-29 [1]) of -58.2% and a GI50 (M14 [2]) of 52 nM. It also gave a GI50 (SK-OV-3 [3]) of 2610 nM, a GI50 (SK-MEL-2) of 27 nM and a GI50 (HL-60(TB)) of 46 nM. It also gave a growth at 10 µM (SF-268) of -4.6%, a CC50 (SF-295 [4]) greater than 100000 nM and a growth at 10 µM (U-251 [5]) of -68.4%. For the same molecule, the CC50 (OVCAR-4 [6]) was greater than 100000 nM, the GI50 (HOP-92) was 30 nM and the growth at 10 µM (SNB-75 [7]) was -31.4%. For the same molecule, the growth at 10 µM (SW-620) was -86.3%, the GI50 (BT-549 [8]) was 66 nM and the growth at 10 µM (PC-3) was -78.1%. The growth at 10 µM (SF-295 [9]) was -68.4%, the CC50 (SR) was 8080 nM and the growth at 10 µM (cells [10]) was -35.8%. The growth at 10 µM (NCI-H522 [11]) was -71.4%, the growth at 10 µM (HOP-62) was -2.18% and the growth at 10 µM (OVCAR-8) was -79.9%. For the same molecule, the GI50 (IGROV-1) was 71 nM, the growth at 10 µM (M14 [12]) was -83.9% and the GI50 (NCI-H23 [13]) was 192 nM. The CC50 (NCI-H522 [14]) was greater than 100000 nM, the growth at 10 µM (A498) was -48.3% and the GI50 (KM12) was 49 nM. It also gave a CC50 (COLO 205) greater than 100000 nM, a GI50 (ACHN) of 260 nM and a growth at 10 µM (T47D) of -14.8%. The growth at 10 µM (UACC-257) was -34.6%, the CC50 (SNB-75 [15]) was greater than 100000 nM and the CC50 (BT-549 [16]) was greater than 100000 nM. For the same molecule, the GI50 (HCC 2998) was 240 nM, the growth at 10 µM (NCI-H23 [17]) was -39.3% and the GI50 (SF-539) was 174 nM. The CC50 (cells [18]) was greater than 100000 nM, the growth at 10 µM (MDA-MB-231) was -38.3% and the growth at 10 µM (SK-OV-3 [19]) was -3.34%. It also gave a CC50 (SNB-19 [20]) greater than 100000 nM, a GI50 (NCI/ADR-RES [21]) of 730 nM and a growth at 10 µM (786-0 [22]) of -65.8%. For the same molecule, the GI50 (U-251 [23]) was 41 nM, the GI50 (SNB-19 [24]) was 69 nM and the GI50 (MDA-MB-435 [25]) was 45 nM. For the same molecule, the GI50 (786-0 [26]) was 253 nM, the growth at 10 µM (NCI-H226) was -1.45% and the GI50 (MOLT-4 [27]) was 69 nM. The GI50 (K562) was 41 nM, the GI50 (UACC-62) was 45 nM and the growth at 10 µM (MCF7) was -51.8%. It also gave a growth at 10 µM (RPMI-8226) of 59.4%, a GI50 (SN12C) of 42 nM and a CC50 (MDA-MB-435 [28]) of 19800 nM. It also gave a GI50 (HCT-116) of 61 nM, a growth at 10 µM (MOLT-4 [29]) of 51.6% and a growth at 10 µM (MDA-MB-435 [30]) of -81%. It also gave a growth at 10 µM (SK-MEL-28) of -97.8%, a growth at 10 µM (OVCAR-4 [31]) of -91.8% and a GI50 (SK-MEL-5) of 79 nM. The CC50 (UO-31) was greater than 100000 nM, the growth at 10 µM (CCRF-CEM) was 26.4% and the growth at 10 µM (LOX IMVI) was -68.5%. The GI50 (HCT-15) was 291 nM, the GI50 (RXF 393) was 141 nM and the CC50 (MDA-MB-468) was 2560 nM. It also gave a CC50 (HT-29 [32]) greater than 100000 nM, a CC50 (MOLT-4 [33]) greater than 100000 nM and a GI50 (TK-10) of 341 nM. For the same molecule, the growth at 10 µM (NCI/ADR-RES [34]) was -10.5% and the growth at 10 µM (cells [35]) was 4.01%.

Molecule `CCCCCCCC[N+](C)(CCCCCCCC)CCCCCCCC.O=S(=O)([N-]S(=O)(=O)C(F)(F)F)C(F)(F)F` has a growth at 10 µM (NCI-H322M) of -100%, a growth at 10 µM (HT-29 [1]) of -100% and a GI50 (M14 [2]) of 453 nM. For the same molecule, the GI50 (SK-OV-3 [3]) was 565 nM, the GI50 (SK-MEL-2) was 356 nM and the GI50 (HL-60(TB)) was 173 nM. The growth at 10 µM (SF-268) was -100%, the CC50 (SF-295 [4]) was 4570 nM and the growth at 10 µM (U-251 [5]) was -75%. For the same molecule, the CC50 (OVCAR-4 [6]) was 5800 nM, the GI50 (HOP-92) was 206 nM and the growth at 10 µM (SNB-75 [7]) was -100%. The growth at 10 µM (SW-620) was -100%, the GI50 (BT-549 [8]) was 421 nM and the growth at 10 µM (PC-3) was -91.3%. For the same molecule, the growth at 10 µM (SF-295 [9]) was -94.8%, the CC50 (SR) was 5130 nM and the growth at 10 µM (cells [10]) was -66.7%. It also gave a growth at 10 µM (NCI-H522 [11]) of -99.9%, a growth at 10 µM (HOP-62) of -92.2% and a growth at 10 µM (OVCAR-8) of -100%. For the same molecule, the GI50 (IGROV-1) was 388 nM, the growth at 10 µM (M14 [12]) was -91.7% and the GI50 (NCI-H23 [13]) was 308 nM. The CC50 (NCI-H522 [14]) was 5400 nM, the growth at 10 µM (A498) was -100% and the GI50 (KM12) was 310 nM. For the same molecule, the CC50 (COLO 205) was greater than 100000 nM, the GI50 (ACHN) was 630 nM and the growth at 10 µM (T47D) was -73.3%. It also gave a growth at 10 µM (UACC-257) of -95.2%, a CC50 (SNB-75 [15]) of 3770 nM and a CC50 (BT-549 [16]) of 4420 nM. It also gave a GI50 (HCC 2998) of 425 nM, a growth at 10 µM (NCI-H23 [17]) of -97% and a GI50 (SF-539) of 514 nM. The CC50 (cells [18]) was greater than 100000 nM, the growth at 10 µM (MDA-MB-231) was -87% and the growth at 10 µM (SK-OV-3 [19]) was -97.8%. The CC50 (SNB-19 [20]) was 8250 nM, the GI50 (NCI/ADR-RES [21]) was 1680 nM and the growth at 10 µM (786-0 [22]) was -95.8%. It also gave a GI50 (U-251 [23]) of 334 nM, a GI50 (SNB-19 [24]) of 587 nM and a GI50 (MDA-MB-435 [25]) of 335 nM. For the same molecule, the GI50 (786-0 [26]) was 415 nM, the growth at 10 µM (NCI-H226) was -86.2% and the GI50 (MOLT-4 [27]) was 324 nM. For the same molecule, the GI50 (K562) was 186 nM, the GI50 (UACC-62) was 335 nM and the growth at 10 µM (MCF7) was -100%. For the same molecule, the growth at 10 µM (RPMI-8226) was 44.2%, the GI50 (SN12C) was 367 nM and the CC50 (MDA-MB-435 [28]) was 5700 nM. The GI50 (HCT-116) was 319 nM, the growth at 10 µM (MOLT-4 [29]) was 37.4% and the growth at 10 µM (MDA-MB-435 [30]) was -90.8%. The growth at 10 µM (SK-MEL-28) was -100%, the growth at 10 µM (OVCAR-4 [31]) was -94.1% and the GI50 (SK-MEL-5) was 177 nM. It also gave a CC50 (UO-31) of 5950 nM, a growth at 10 µM (CCRF-CEM) of 85.7% and a growth at 10 µM (LOX IMVI) of -74.7%. The GI50 (HCT-15) was 993 nM, the GI50 (RXF 393) was 464 nM and the CC50 (MDA-MB-468) was 2110 nM. The CC50 (HT-29 [32]) was 5170 nM, the CC50 (MOLT-4 [33]) was 4890 nM and the GI50 (TK-10) was 503 nM. For the same molecule, the growth at 10 µM (NCI/ADR-RES [34]) was -100% and the growth at 10 µM (cells [35]) was -98.6%.
